PubChem BioAssay (NCI)
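These data come from cells grown in 96-well plates and exposed to compound for 48 hours at five concentrations. GI50 is the concentration that inhibits growth by half. At the TGI there is no net growth.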

Legend:
Experiment in all cases: NCI anticancer screen, dose series, 48 h
U251 CNS = test system: U251 CNS
SF-295 CNS = test system: SF-295 CNS
SK-MEL-2 melanoma = test system: SK-MEL-2 melanoma
DU-145 prostate = test system: DU-145 prostate
UO-31 renal = test system: UO-31 renal
M14 melanoma = test system: M14 melanoma
PC-3 prostate = test system: PC-3 prostate
SK-MEL-28 melanoma = test system: SK-MEL-28 melanoma
NCI-H226 lung = test system: NCI-H226 lung
NCI/ADR-RES ovarian = test system: NCI/ADR-RES ovarian

| Structure (SMILES) | GI50 (U251 CNS) | TGI (U251 CNS) | GI50 (SF-295 CNS) | TGI (SF-295 CNS) | GI50 (SK-MEL-2 melanoma) | TGI (SK-MEL-2 melanoma) | GI50 (DU-145 prostate) | TGI (DU-145 prostate) | GI50 (UO-31 renal) | TGI (UO-31 renal) | GI50 (M14 melanoma) | TGI (M14 melanoma) | GI50 (PC-3 prostate) | TGI (PC-3 prostate) | GI50 (SK-MEL-28 melanoma) | TGI (SK-MEL-28 melanoma) | GI50 (NCI-H226 lung) | TGI (NCI-H226 lung) | GI50 (NCI/ADR-RES ovarian) | TGI (NCI/ADR-RES ovarian) |
| --- | --- | --- | --- | --- | --- | --- | --- | --- | --- | --- | --- | --- | --- | --- | --- | --- | --- | --- | --- | --- |
| O=C(O)c1ccc([S-])cc1.[Au+].c1ccc(CN2[CH-]N(Cc3ccccc3)C(c3ccccc3)=C2c2ccccc2)cc1 | 0.321 µM | 1.36 µM | 0.242 µM | 1.09 µM | 0.346 µM | 1.21 µM | 0.526 µM | 1.74 µM | 0.311 µM | 1.27 µM | 0.385 µM | 1.61 µM | 0.308 µM | 1.44 µM | 0.43 µM | 1.71 µM |  |  |  |  |
| CC1(C)N=C(N)N=C(N)N1c1ccc(CCc2ccc(Cl)cc2S(=O)(=O)F)c(Cl)c1 | 4.42 µM | 20.6 µM | 4.82 µM | > 100 µM |  |  | 5.91 µM | > 100 µM | > 100 µM | > 100 µM | 6.2 µM | > 100 µM | 6.62 µM | > 100 µM | 7.99 µM | 23.4 µM | 17.9 µM | 44.3 µM | > 100 µM | > 100 µM |
| CCCCCCCC(=O)OCC1OC(n2cc(F)c(=O)[nH]c2=O)C(NC(=O)OCc2ccccc2)C(O)C1O (configuration not stated) |  | > 100 µM |  | > 100 µM |  | 53.5 µM |  |  |  | > 100 µM |  | > 100 µM |  |  |  | > 100 µM |  |  |  |  |
| CCC(=O)C(C)C(=O)C(=O)C(=O)OC (configuration not stated) |  | > 68.2 µM |  | > 100 µM |  | > 100 µM |  |  |  | > 100 µM |  | > 100 µM |  |  |  | > 100 µM |  | > 100 µM |  |  |
| O=C1[C@H]2ON(c3ccccc3)C(c3ccccc3F)[C@H]2C(=O)N1c1ccc(Cc2ccc(N3C(=O)[C@@H]4ON(c5ccccc5)C(c5ccccc5F)[C@@H]4C3=O)cc2)cc1 (some centres not stated) |  | > 100 µM |  | > 100 µM |  | > 100 µM |  |  |  | > 100 µM |  | > 100 µM |  |  |  | > 100 µM |  | > 100 µM |  |  |
| O=C(O)C(C(=O)C(=O)C(C(=O)O)c1ccc(Cl)cc1)c1ccc(Cl)cc1 (configuration not stated) |  | 12 µM |  | 20.8 µM |  |  |  |  |  | 15.4 µM |  | 16.4 µM |  |  |  | 15.7 µM |  | 16.4 µM |  |  |
| COc1ccc(SC2c3ccc(C)cc3Oc3nc(N)c(C#N)c(N)c32)cc1 (configuration not stated) | 1.81 µM | 3.22 µM | 1.55 µM | 2.89 µM | 1.72 µM | 3.59 µM | 1.82 µM | 3.21 µM | 1.39 µM | 2.68 µM | 1.76 µM | 3.41 µM | 1.6 µM | 3.11 µM | 1.75 µM | 3.2 µM | 1.75 µM | 3.22 µM |  |  |
| CC1=C(C(=O)Nc2ccc([N+](=O)[O-])cc2)C(c2ccccc2O)C(C(=O)Nc2ccc([N+](=O)[O-])cc2)=C(C)N1 |  | 61.1 µM |  | 72.2 µM |  | 31.8 µM |  |  |  | 67.8 µM |  | 45.1 µM |  |  |  | 61.5 µM |  | 46.9 µM |  |  |
| O=[P+](O)c1cc2ccccc2c2ccccc12 |  | > 100 µM |  | > 100 µM |  |  |  |  |  |  |  | > 100 µM |  |  |  | > 100 µM |  | > 100 µM |  |  |
| COc1ccc(OC)c(NCC#N)c1 |  | > 100 µM |  | > 100 µM |  | > 100 µM |  |  |  | > 100 µM |  | > 100 µM |  |  |  | > 100 µM |  | > 100 µM |  |  |
| CN(C(=O)C12C3(C(=O)C(C)(C)C)C4C5(C#N)C3C1(C(=O)C(C)(C)C)C5C42C(=O)C(C)(C)C)C(C)(C)C (configuration not stated) |  | > 50 µM |  | > 50 µM |  |  |  |  |  | > 50 µM |  | > 50 µM |  |  |  | > 50 µM |  | > 50 µM |  |  |
| CN(C)C(=S)/N=c1\ss/c(=N\C(=S)N(C)C)n1-c1ccc(Cl)cc1 |  | > 100 µM |  | > 100 µM |  | > 100 µM |  |  |  | > 100 µM |  | > 100 µM |  |  |  | > 100 µM |  | > 100 µM |  |  |
| O=c1nc(NC(c2ccccc2)(c2ccccc2)c2ccccc2)ccn1CCO |  | > 100 µM |  | > 100 µM |  | > 100 µM |  |  |  | > 100 µM |  |  |  |  |  | > 100 µM |  | > 100 µM |  |  |
| CCOC(=O)[C@H]1CSC[C@@H](C(=O)OC)N1 |  | > 100 µM |  | > 100 µM |  | > 100 µM |  |  |  | > 100 µM |  | > 100 µM |  |  |  | > 100 µM |  |  |  |  |
| CSc1nc(SC)c2c(C(N)=S)[nH]nc2n1 |  | 46.1 µM |  | 48.1 µM |  | 50.5 µM |  |  |  | 49.6 µM |  | > 100 µM |  |  |  | 99.5 µM |  | 62.6 µM |  |  |
| COC(=O)c1ccc(NC(=O)c2cc(OC)c(OC)c(OC)c2)cc1 |  |  |  | > 100 µM |  | > 100 µM |  |  |  | 66.9 µM |  | > 100 µM |  |  |  | > 100 µM |  | > 85.4 µM |  |  |
| CCOC(=O)c1cc2c(cn1)[nH]c1cccc(N)c12 |  | > 100 µM |  | > 100 µM |  |  |  |  |  | > 100 µM |  | > 100 µM |  |  |  | > 100 µM |  |  |  |  |
| COc1cc(C=O)c(-c2cc3c(cc2C2(C)OCCS2)OCO3)c(OC)c1OC (configuration not stated) |  | 72 µM |  | 48 µM |  | 47.7 µM |  |  |  | 64.2 µM |  | 16.1 µM |  |  |  | 26 µM |  | 29.5 µM |  |  |
